Assays:
[1] = tested on: MDCK1 (Madin–Darby canine kidney) cells; experiment: MTT antiproliferative assay, non-tumor MDCK1 cells; assay type: cell-based; conditions: Canis lupus familiaris, MDCK1, 72 h, mean ± SD of three independent experiments, normal cells
Description: (§1) The growth inhibition activity was assessed according to the slightly modified procedure performed at the National Cancer Institute, Developmental Therapeutics Program.
(§2) Examined compounds were dissolved in DMSO (1 × 10^−2 M). The experiments were carried out on seven human tumor cell lines and two normal cell lines. The following cell lines were used: HeLa (human cervical adenocarcinoma; purchased from ATCC), CaCo-2 (human colorectal adenocarcinoma), HuT78 (T-cell lymphoma), THP-1 (acute monocytic leukemia), SW620 (colorectal adenocarcinoma, metastatic), MDA-MB-231 (human breast adenocarcinoma), HL60 (promyelocytic leukemia cell line), foreskin fibroblast cells (BJ) and MDCK1 (Madine–Darby canine kidney fibroblast like cells). MDCK1 cells were used between 24 and 26 passages.
(§3) Adherent cells were cultured in the Dulbecco’s modified Eagle medium—DMEM (Gibco, EU) supplemented with 10 % heat-inactivated fetal bovine serum (FBS, Gibco, EU), 2 mM glutamine, and 100 U/0.1 mg penicillin/streptomycin. Cells on suspension were cultured in RPMI 1640 (Gibco, EU) medium supplemented with 10 % FBS (Gibco, EU), 2 mM glutamine, 1 mM sodium pyruvate, 10 mM HEPES. Cells were grown in humidified atmosphere under the conditions of 37 °C/5% of CO2 gas in the CO2 incubator (IGO 150 CELLlife^TM, JOUAN, Thermo Fisher Scientific, Waltham, MA, USA). A erythrosin B (Sigma-Aldrich, St. Louis, MO, USA) dye exclusion method was used to assess cell viability before plating.
(§4) Adherent cells (HeLa, CaCo-2, MCF-7 and MDCK-1) were plated in 96-well flat bottom plates (Greiner, Frickenhausen, Austria) at a concentration of 2 × 10^4 cells/mL. Suspension cells (THP-1 and HuT78) were plated in 96-well microtiter plates (Sarstead, Newton, USA) at a concentration of 1 × 10^5 cells/mL. Twenty-four hours later, cells were treated with test agents in […] 10-fold dilutions ([…] to 10^−4 M) and incubated for further 72 h. Working dilutions were freshly prepared on the day of testing. The solvent was also tested for eventual inhibitory activity by adjusting its concentration to be the same as in working concentrations. After 72 h of incubation, the cell growth rate was evaluated by performing the MTT assay, which detects dehydrogenase activity in viable cells. For this purpose, upon completion of the incubation period, growth medium was discarded and 50 μL of MTT was added to each well at a concentration of 5 mg/mL. After four hours of incubation at 37 °C, water insoluble MTT-formazan crystals were dissolved in 150 μL of dimethyl-sulfoxide (DMSO) for adherent cells, and in 10 % SDS with 0.01 M/L HCl for cells grown in suspension. The absorbance (OD, optical density) was measured on a microplate reader (iMark, BIO RAD, Hercules, CA, USA) at 595 nm.
(§5) Percent of life cells was calculated as follows: % = OD (sample)–OD (background)/OD (control)–OD (background) × 100.
(§6) Optical density (OD) of background for adherent cells is the OD of MTT solution and DMSO; OD (background) for suspension cells is OD of the culture medium with MTT and 10% SDS with 0.01 M/L HCl; OD (control) is the OD of the cells growth without tested compounds.
(§7) Calculation of GI50 value curves and QC analysis is performed by using the Excel tools and GraphPadPrism software (La Jolla, CA), v. 5.03. Briefly, individual concentration effect curves are generated by plotting the logarithm of the concentration of tested compounds(X) vs. corresponding percent inhibition values (Y) using least squares fit. The best fit GI50 values are calculated using Log (inhibitor) versus normalized response—Variable slope equation, where Y Ľ 100/(1 ţ 10 ((LogIC50 _ X) * HillSlope)). QC criteria parameters (Z0, S:B, R2, HillSlope) were checked for every GI50 curve.

human fibroblasts (BJ) = experiment: MTT antiproliferative assay, normal BJ fibroblasts; assay type: cell-based; conditions: Homo sapiens, Fibroblast, 72 h, MTT, mean ± SD of three independent experiments; normal cells
Description: as §1, §2, §3, §4, §5, §6, §7

[2] = tested on: HeLa (cervical adenocarcinoma) cells; experiment: MTT antiproliferative assay, HeLa; assay type: cell-based; conditions: Homo sapiens, 72 h, mean ± SD of three independent experiments
Description: as §1, §2, §3, §4, §5, §6, §7

[3] = tested on: CaCo-2 (colon adenocarcinoma) cells; experiment: MTT antiproliferative assay, CaCo-2; assay type: cell-based, human; conditions: for IC50: Homo sapiens, Caco-2, 72 h, MTT, mean ± SD of three independent experiments
Description: as §1, §2, §3, §4, §5, §6
as §7, with “The best fit GI50 values are calculated using Log (inhibitor) versus normalized response—Variable slope equation, where Y Ľ 100/(1 ţ 10 ((LogIC50 _ X) * HillSlope)).” left out

[4] = tested on: HuT78 (T-cell lymphoma) cells; experiment: MTT antiproliferative assay, HuT78; assay type: cell-based, human; conditions: for IC50: Homo sapiens, HuT78, 72 h, 72 h, MTT, mean ± SD of three independent experiments; for SI (BJ) HuT78: SI = IC50 BJ / IC50 HuT78
Description: as §1, §2, §3, §4, §5, §6, §7

SMILES | IC50 [1] | IC50 (human fibroblasts (BJ)) | IC50 [2] | IC50 [3] | IC50 [4] | melting point | SI (BJ) HuT78 [4] | SI (BJ) CaCo-2 ([3]; SI = IC50 BJ / IC50 CaCo-2) | SI (MDCK) CaCo-2 ([3]; SI = IC50 MDCK1 / IC50 CaCo-2)
Cl.c1ccc(COc2ccc(-c3nc4ccc(C5=NCCN5)cc4s3)cc2)nc1 [35a, 2-(4-(Pyridin-2-ylmethoxy)phenyl)-6-(4,5-dihydro-1H-imidazol-2-yl)benzothiazole hydrochloride] | 2.7 ± 0.3 µM | 3.2 ± 0.3 µM | 18.9 ± 3.6 µM | 26.7 ± 2.1 µM | 1.4 ± 0.2 µM | > 250 °C | – | – | –
COc1cc(-c2nc3ccc(Cl)cc3s2)ccc1OCc1ccccn1 [18c] | 41.4 ± 8.1 µM | > 100 µM | 67.3 ± 7.8 µM | > 100 µM | 55.6 ± 34.6 µM | 173 to 176 °C | – | – | –
COc1cc(-c2nc3ccccc3s2)ccc1OCc1c[nH]nn1 [23c, 2-(3-Methoxy-4-((1H-1,2,3-triazol-4-yl)methoxy)phenyl)benzothiazole] | 29.5 ± 7.2 µM | > 100 µM | 45.7 ± 16.3 µM | 96.4 ± 13.3 µM | 20 ± 8.7 µM | 177 to 180 °C | 5.0 | – | –
COc1cc(-c2nc3ccc(F)cc3s2)ccc1OCc1ccccn1 [19c] | 1.1 ± 0.2 µM | > 100 µM | > 100 µM | > 100 µM | > 100 µM | 152 to 156 °C | – | – | –
Fc1cc(-c2nc3ccccc3s2)ccc1OCc1ccccn1 [20b] | 94.2 ± 18.4 µM | > 100 µM | > 100 µM | 28.7 ± 16.7 µM | > 100 µM | 136 to 142 °C | – | 3.48 | 3.28
Fc1cc(-c2nc3ccccc3s2)ccc1OCc1cn(Cc2ccccc2)nn1 [26b, 2-(3-Fluoro-4-((1-benzyl-1H-1,2,3-triazol-4-yl)methoxy)phenyl)benzothiazole] | 64.8 ± 38.5 µM | > 100 µM | > 100 µM | > 100 µM | > 100 µM | 198 to 201 °C | – | – | –
Fc1ccc2nc(-c3ccc(OCc4c[nH]nn4)c(F)c3)sc2c1 [22b, 6-Fluoro-2-(3-fluoro-4-((1H-1,2,3-triazol-4-yl)methoxy)phenyl)benzothiazole] | 1 µM | 86.4 ± 20.9 µM | 50.6 ± 19.3 µM | > 100 µM | 9.1 ± 2.8 µM | 177 to 180 °C | 9.49 | – | –
Fc1ccc2nc(-c3ccc(OCc4ccccn4)c(F)c3)sc2c1 [19b] | 16.3 ± 11.5 µM | > 100 µM | > 100 µM | > 100 µM | > 100 µM | 190 to 195 °C | – | – | –
Clc1ccc2nc(-c3ccc(OCc4cn(Cc5ccccc5)nn4)cc3)sc2c1 [24a, 6-Chloro-2-(4-((1-benzyl-1H-1,2,3-triazol-4-yl)methoxy)phenyl)benzothiazole] | 11.4 ± 14.5 µM | > 100 µM | > 100 µM | > 100 µM | > 100 µM | 201 to 205 °C | – | – | –
Cl.O=C(COc1ccc(-c2nc3ccc(C4=NCCN4)cc3s2)cc1)c1ccccc1 [34a, 2-(4-(2-Oxo-2-phenylethoxy)phenyl)-6-(4,5-dihydro-1H-imidazol-2-yl)benzothiazole hydrochloride] | 2.8 ± 0.3 µM | 3.9 ± 0.3 µM | 3.4 ± 0.2 µM | 4 ± 0.2 µM | 2.2 ± 0.3 µM | > 250 °C | – | – | –
